Measured values published in paper PMC5382548 (Scientific Reports, 2015).

Columns and labels:
[1] = tested on: p21^KRAS protein in HCT116 cells; assay: p21KRAS protein immunoblot, HCT116; format: cell-based, human; settings: IC50 concentration, 72 h; cell line not given
Experimental: (a) KRAS mRNA steady-state expression was evaluated by Taqman Real-time RT-PCR using specific Taqman Assays for KRAS and β-Actin for normalization. KRAS mRNA steady-state expression levels were calculated by the ΔΔCt method, using DMSO (vehicle control) for calibration; and (b) KRAS protein steady-state expression evaluated by immunoblot relative to control (DMSO vehicle) Results are expressed as mean ± SEM of at least three independent experiments; *p < 0.05 and §p < 0.01 from DMSO (vehicle control).
In agreement with its reported capacity to accumulate in cytoplasm, bind to UTR1 and UTR2 RNA G4[14][20] and inhibit NRAS translation, TMPyP4 reduced the levels of p21^KRAS by ~75% in HCT116 cells. […]
Samples were homogenized in ice-cold 1:1 solution of buffer A [10 mm Tris•HCl pH 7.6, 5 mm MgCl2, 1.5 mm KOAc, 2 mm dithiothreitol (DTT), and Halt Protease and Phosphatase inhibitor cocktail, EDTA-free (#78445, Thermo Scientific)] and buffer 2X (10 mm Tris•HCl pH 7.6, 1% Nonidet-P40, and Halt Protease and Phosphatase inhibitor cocktail), by vigorous vortexing and incubated on ice for 30 min. […] Protein concentrations were determined using the BioRad protein assay kit according to the manufacturer’s instructions. Steady-state levels of KRAS protein were determined by immunoblot analysis. […] Steady-state protein levels were expressed as mean ±SEM from at least three independent experiments.

[2] = tested on: F21T G4; assay: FRET melting competition assay, labelled F21T; format: binding, human; settings: ligand 1 μM, labelled F21T 0.2 μM
Experimental: To assess selectivity of the IQc compounds 2d and 3e to different DNA sequences, we performed competitive FRET experiments with 0.2 μM of labelled KRAS21R and F21T G4 and increasing concentrations of two non-fluorescent competitors, 26mer ds-DNA or the human telomeric sequence (HT21). A decrease in ΔTm indicates the displacement of the ligand from labelled G4 by the competitor DNA.
Figure 3 FRET melting competition assay data for (a) 2d and (b) 3e (1 μM) in complex with KRAS21R and F21T G4s (0.2 μM), with increasing concentrations of non-labeled 26ds, HT21 or KRAS21R (0.4 to 25 μM) competitor, in K-cacodylate buffer (pH 7.4, 60 mM K^+).
Oligonucleotide sequences were purchased from Eurofins MWG Synthesis GmbH, Germany or STAB VIDA Genomics Lab, Caparica, Lisbon, Portugal. The labelled oligonucleotides used in the FRET assays had attached the donor fluorophore FAM (6-carboxyfluorescein) and the acceptor fluorophore TAMRA (6-carboxytetramethylrhodamine): KRAS21R: 5′-FAM-[…]-TAMRA-3′; KRAS32R: 5′-FAM-[…]-TAMRA-3′; UTR-1: 5′-FAM-GCGGCGGCGGAGG-TAMRA-3′; UTR-2: 5′-FAM-[…]-TAMRA-3; T-Loop:5′-FAM-[…]-TAMRA-3′; F21T: 5′-FAM-[…]-TAMRA-3′. Non-labelled oligonucleotides were used in FRET competition assays and in the spectroscopic studies: ds26: - d(5′-CAATCGGATCGAATT CGATCCGATTG-3′); KRAS21R: 5′-[…]-3′; HT21: 5′-[…]-3′. […]

Row | Structure (SMILES) | KRAS protein levels reduced to (% remaining) [1] | Concentration of competitor KRAS21R reducing the induced thermal stability of F21T by 50% [2]
1 | CCN(CC)CCCNc1ccc2c(c1)c1[nH]c3ccccc3c1c[n+]2C [2d] | ~ 50% | 
2 | CCN(CC)CCCNc1ccc2c(c1)[nH]c1c2c[n+](C)c2ccc(NCCCN(CC)CC)cc12.[Cl-] [3e] |  | 2 µM
